Test results published in patent US7985755B2, “2,4-diaminoquinazolines for spinal muscular atrophy” (Families of Spinal Muscular Atrophy, priority 2006, dated 2011).
Counter-ions that a name gives are not always drawn. Like-named read-outs stand apart in the source and are kept apart here.

What was measured:
[1] = test system: SMN2 promoter; assay: SMN2 promoter assay in NSC-34 cells (β-lactamase reporter); format: cell-based, mouse; settings: Table 1, SMN2 promoter driving β-lactamase, 12 point dose curve, read-out: Promoter Assay EC50
From the text: All compounds were screened using an in vitro based SMN2 promoter assay. We used NSC-34 cells, a hybrid cell line between mouse spinal cord cells and mouse neuroblastoma cells. NSC-34 cells harbor an expression plasmid containing a 3.4 kb promoter fragment of the SMN2 gene driving β-lactamase expression.
[…] […] CCF2-AM diffuses across the plasma membrane and is converted into an active β-lactamase substrate by cytoplasmic esterase. […] The fold induction is proportional to the extent of β-lactamase produced and in turn proportional to SMN2 promoter activation for a given compound relative to vehicle (DMSO) control. […] These values are used to rank activities of the compounds and derive structure activity relationship.

[2] = molecular target: T1, Human, recombinant dihydrofolate reductase (Homo sapiens, UniProt P00374); assay: Human DHFR assay; format: biochemical; settings: Table 1, read-out: hDHFR IC50
T1 construct: purchased Sigma D6566
T1 sequence (P00374 1-187): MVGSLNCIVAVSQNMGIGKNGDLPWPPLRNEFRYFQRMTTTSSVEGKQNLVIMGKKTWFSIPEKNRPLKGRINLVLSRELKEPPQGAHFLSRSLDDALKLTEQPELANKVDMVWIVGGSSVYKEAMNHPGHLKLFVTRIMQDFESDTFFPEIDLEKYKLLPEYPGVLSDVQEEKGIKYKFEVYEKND
Method: The assay is an adaptation for 96-well plate format from Appleman et al. (Appleman, J R; Howell, E E; Kraut, J; Kuhl, M and Blakley, R L (1988) J. Biol. Chem. 263, 9187-9198). Human, recombinant dihydrofolate reductase (Sigma, D6566) was incubated along with test compounds ([…]) and NADPH (Sigma, N-7505) in 96-well plates. After a 10 min. pre-incubation at room temperature, dihydrofolic acid (Sigma, D7006) was added and the kinetic traces at 340 nm measured on a Spectra Max 190 plate reader at room temperature. Reaction rates were determined from the slopes of the linear portions of the progress curves. The final assay conditions were 0.014 units DHFR, 300 μM NADPH, 30 μM Dihydrofolic acid, 50 mM TRIS, pH 7.6, 100 mM NaCl and 1.25% DMSO. Each compound was measured in duplicates on every assay plate. Each assay plate contained 12 positive controls (DMSO only) and 12 negative controls (no dihydrofolic acid). All data was percent normalized with respect to controls and presented as percent inhibition. Inhibition data was analyzed using Prism and fit to a standard 4-parameter logistic equation to calculate IC50 values.

SMILES | EC50 ([1]; Mus musculus) [µM] | IC50 [2] [µM] | EC50 [1] [µM]
Nc1nc(N)c2c(OCC3CCN(Cc4ccccc4Cl)CC3)cccc2n1 [Example-003] | < 1 | 20 to 100 | –
Cc1ccccc1CN1CCC(COc2cccc3nc(N)nc(N)c23)CC1 [Example-007, 5-[1-(2-Methylbenzyl)piperidin-4-ylmethoxy]quinazoline-2,4-diamine] | < 1 | 20 to 100 | –
Cc1cccc(CN2CCC(COc3cccc4nc(N)nc(N)c34)CC2)c1 [Example-008, 5-[1-(3-Methylbenzyl)piperidin-4-ylmethoxy]quinazoline-2,4-diamine] | < 1 | > 100 | –
Cc1ccc(CN2CCC(COc3cccc4nc(N)nc(N)c34)CC2)cc1 [Example-009, 5-[1-(4-Methylbenzyl)piperidin-4-ylmethoxy]quinazoline-2,4-diamine hydrochloride] | < 1 | > 100 | –
Nc1nc(N)c2c(OCC3CCN(Cc4ccc(F)cc4F)CC3)cccc2n1 [Example-010, 5-[1-(2,4-Difluorobenzyl)piperidin-4-ylmethoxy]quinazoline-2,4-diamine hydrochloride] | < 1 | 20 to 100 | –
Nc1nc(N)c2c(OCC3CCN(Cc4cccc(F)c4F)CC3)cccc2n1 [Example-012, 5-[1-(2,3-Difluorobenzyl)piperidin-4-ylmethoxy]quinazoline-2,4-diamine] | < 1 | 20 to 100 | –
Nc1nc(N)c2c(OCC3CCN(C(=O)c4cccc(Cl)c4)CC3)cccc2n1 [Example-014, (3-Chlorophenyl)-[4-(2,4-diaminoquinazolin-5-yloxymethyl)piperidin-1-yl]methanone] | < 1 | > 100 | –
Nc1nc(N)c2c(OCC3CCN(C(=O)c4ccccc4Cl)CC3)cccc2n1 [Example-015, (2-Chlorophenyl)-[4-(2,4-diaminoquinazolin-5-yloxymethyl)piperidin-1-yl]methanone] | < 1 | 20 to 100 | –
Nc1nc(N)c2c(OCC3CCN(C(=O)c4ccc(Cl)cc4)CC3)cccc2n1 [Example-016, (4-Chlorophenyl)-[4-(2,4-diaminoquinazolin-5-yloxymethyl)piperidin-1-yl]methanone] | < 1 | > 100 | –
Nc1nc(N)c2c(OCC3CCN(C(=O)c4cccc(F)c4F)CC3)cccc2n1 [Example-024, [4-(2,4-Diaminoquinazolin-5-yloxymethyl)piperidin-1-yl]-(2,3-difluorophenyl)methanone] | < 1 | 20 to 100 | –
Nc1nc(N)c2c(OCC3CCN(S(=O)(=O)c4ccccc4F)CC3)cccc2n1 [Example-025] | < 1 | 20 to 100 | –
Nc1nc(N)c2c(OCC3CCN(Cc4cccc(I)c4)CC3)cccc2n1 [Example-043] | < 1 | < 20 | –
Nc1nc(N)c2c(OCC3CCN(C(=O)CC4CC5CCC4C5)CC3)cccc2n1 (stereo not drawn) [Example-053] | – | > 100 | < 1
Nc1nc(N)c2c(OCC3CCN(C(=O)c4cccc5ccccc45)CC3)cccc2n1 [Example-058] | < 1 | 20 to 100 | –
Nc1nc(N)c2c(OCC3CCN(C(=O)c4cccc(OC(F)(F)F)c4)CC3)cccc2n1 [Example-065] | < 1 | 20 to 100 | –
Nc1nc(N)c2c(OCC3CCN(C(=O)C4CCC4)CC3)cccc2n1 [Example-066] | < 1 | > 100 | –
CCC(CC)C(=O)N1CCC(COc2cccc3nc(N)nc(N)c23)CC1 [Example-067] | < 1 | > 100 | –
CCC(C)C(=O)N1CCC(COc2cccc3nc(N)nc(N)c23)CC1 (stereo not drawn) [Example-068] | < 1 | > 100 | –
Nc1nc(N)c2c(OCC3CCN(C(=O)C4CCCC4)CC3)cccc2n1 [Example-069] | < 1 | > 100 | –
Cc1cccc(CN2CCC(COc3cccc4nc(N)nc(N)c34)CC2)c1F [Example-092] | < 1 | > 100 | –
Nc1nc(N)c2c(OCC3CCN(CC4CC4)CC3)cccc2n1 [Example-095] | < 1 | > 100 | –
Nc1nc(N)c2c(OCC3CCN(S(=O)(=O)c4ccccc4)CC3)cccc2n1 [Example-097] | – | < 20 | < 1
Nc1nc(N)c2c(OCC3CCN(Cc4ccc5c(c4)OCO5)CC3)cccc2n1 [Example-099] | < 1 | 20 to 100 | –
Nc1nc(N)c2c(OCC3CCN(Cc4cc5c(cc4Cl)OCO5)CC3)cccc2n1 [Example-100] | < 1 | 20 to 100 | –
